Assay [1] concerns the target T1, serotoninergic 5-HT1A receptor (Homo sapiens, UniProt P08908).
T1 sequence (P08908 1-422): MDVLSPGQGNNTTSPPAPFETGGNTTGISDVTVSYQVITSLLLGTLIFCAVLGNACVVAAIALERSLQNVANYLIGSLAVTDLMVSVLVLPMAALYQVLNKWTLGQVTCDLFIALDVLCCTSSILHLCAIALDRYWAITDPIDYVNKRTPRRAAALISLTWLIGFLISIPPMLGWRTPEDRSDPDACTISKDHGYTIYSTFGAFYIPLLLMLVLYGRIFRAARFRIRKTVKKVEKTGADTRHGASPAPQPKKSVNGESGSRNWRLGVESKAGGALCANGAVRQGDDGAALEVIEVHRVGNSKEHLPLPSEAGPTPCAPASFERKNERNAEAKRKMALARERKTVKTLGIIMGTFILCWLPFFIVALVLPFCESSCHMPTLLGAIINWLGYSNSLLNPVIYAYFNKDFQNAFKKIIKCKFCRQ
The assay can be described thus: Binding assay 5-HT1A (h), [3H]8-OH-DPAT, HEK-293 cells. The arrangement: expressed in transfected cells; host or cells: HEK-293 cells. As to conditions: read-out: 5-HT1A. Put shortly: (§1)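 Radioligand displacement at 1×10^−6 M compound, with detection by scintillation counting. Nonspecific signal is measured using an excess of non-radioactive ligand.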

The subject of the next assay is adrenergic α1 receptor. The assay can be described thus: Binding assay α1 (non-selective), [3H]prazosin, rat cerebral cortex. Particulars: percent inhibition of control specific binding; compounds tested at 1×10^−6 M. The method in brief: as §1
Assay [2] deals with serotoninergic 5-HT7 receptor (Homo sapiens, UniProt P34969). The assay can be described thus: Cellular functional assay, serotoninergic 5-HT7 receptor (agonism/antagonism). The assay is classed as cell-based. As to conditions: for activation at 1 µM: read-out: 5-HT7-ag [%]; for inhibition at 1 µM: read-out: 5-HT7-antag. [%]. The method, then:
(§2) The compounds were tested at the concentration of 1×10^−6M.
(§3) In the Tables ag refers to agonism, and antag to antagonism).

For a further assay, the target named is dopaminergic D2 receptor (Homo sapiens, UniProt P14416). The assay can be described thus: Cellular functional assay, dopaminergic D2 receptor (agonism/antagonism). It counts as cell-based. As to conditions: HEK293; for activation at 1 µM: agonist effect, percent of control specific agonist response (3 μM dopamine for control), 1×10^−6 M, D2S (h), HEK-293 cells, read-out: D2-ag [%]; for inhibition at 1 µM: read-out: D2-antag. [%]. The method, then:
as §2, §3

A further assay has as its target T2, adrenergic α2C receptor (Homo sapiens, UniProt P18825).
T2 sequence (P18825 1-462): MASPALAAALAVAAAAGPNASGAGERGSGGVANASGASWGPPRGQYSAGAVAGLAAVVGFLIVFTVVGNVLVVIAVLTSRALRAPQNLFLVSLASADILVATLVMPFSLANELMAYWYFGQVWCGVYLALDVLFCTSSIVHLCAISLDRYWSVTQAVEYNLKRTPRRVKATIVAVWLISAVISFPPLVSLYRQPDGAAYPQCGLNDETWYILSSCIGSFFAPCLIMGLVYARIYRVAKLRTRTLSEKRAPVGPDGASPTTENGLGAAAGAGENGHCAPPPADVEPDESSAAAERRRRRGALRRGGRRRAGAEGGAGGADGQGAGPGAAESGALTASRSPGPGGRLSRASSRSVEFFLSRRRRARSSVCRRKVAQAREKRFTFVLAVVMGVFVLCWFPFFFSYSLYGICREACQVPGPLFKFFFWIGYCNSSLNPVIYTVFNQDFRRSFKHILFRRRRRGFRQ
The assay can be described thus: Binding assay α2C (h), [3H]RX 821002, CHO cells. Also noted: expressed in transfected cells; host or cells: CHO cells. Particulars: read-out: α2C [%]. Put shortly:
as §1

In assay [3] the target is T3, serotoninergic receptor 5-HT2C (Homo sapiens, UniProt P28335).
T3 construct: expressed in transfected cells; host or cells: HEK-293 cells
T3 sequence (P28335 33-458): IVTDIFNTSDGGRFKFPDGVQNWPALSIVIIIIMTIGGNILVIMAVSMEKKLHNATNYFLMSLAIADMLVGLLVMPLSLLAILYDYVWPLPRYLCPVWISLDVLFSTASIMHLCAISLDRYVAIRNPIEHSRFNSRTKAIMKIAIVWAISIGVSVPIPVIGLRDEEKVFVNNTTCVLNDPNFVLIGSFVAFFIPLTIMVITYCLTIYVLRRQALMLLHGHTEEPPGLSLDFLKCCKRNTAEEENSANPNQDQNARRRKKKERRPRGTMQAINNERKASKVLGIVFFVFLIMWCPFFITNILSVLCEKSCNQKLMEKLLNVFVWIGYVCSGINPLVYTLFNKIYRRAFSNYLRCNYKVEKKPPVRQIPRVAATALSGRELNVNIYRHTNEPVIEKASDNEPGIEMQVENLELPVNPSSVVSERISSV
The assay can be described thus: Binding assay 5-HT2C (h), [3H]mesulergine, HEK-293 cells. As to conditions: read-out: 5-HT2C [%]. The method in brief: as §1

Another assay has as its target dopaminergic D3 receptor (Homo sapiens, UniProt P35462). The assay can be described thus: Binding assay D3 (h), [3H]methyl-spiperone, CHO cells. Also noted: expressed in transfected cells; host or cells: CHO cells. Particulars: read-out: D3 [%]. Put shortly: as §1
For another assay, the system named is sigma σ receptor. The assay can be described thus: Binding assay σ (non-selective), [3H]DTG, rat cerebral cortex. As to conditions: percent inhibition of control specific binding; compounds tested at 1×10^−6 M. Put shortly:
as §1

Assay [4] deals with serotoninergic 5-HT2A receptor (Homo sapiens, UniProt P28223). The assay can be described thus: Binding assay 5-HT2A (h), [3H]ketanserin, HEK-293 cells. Also noted: expressed in transfected cells; host or cells: HEK-293 cells. As to conditions: read-out: 5-HT2A. Put shortly:
as §1

[5] abbreviates: agonist effect, percent of control specific agonist response, compounds tested at 1×10^−6M.

Like-named read-outs stand apart in the source and are kept apart here.

Sequence of dopaminergic D2 receptor (P14416 whole entry): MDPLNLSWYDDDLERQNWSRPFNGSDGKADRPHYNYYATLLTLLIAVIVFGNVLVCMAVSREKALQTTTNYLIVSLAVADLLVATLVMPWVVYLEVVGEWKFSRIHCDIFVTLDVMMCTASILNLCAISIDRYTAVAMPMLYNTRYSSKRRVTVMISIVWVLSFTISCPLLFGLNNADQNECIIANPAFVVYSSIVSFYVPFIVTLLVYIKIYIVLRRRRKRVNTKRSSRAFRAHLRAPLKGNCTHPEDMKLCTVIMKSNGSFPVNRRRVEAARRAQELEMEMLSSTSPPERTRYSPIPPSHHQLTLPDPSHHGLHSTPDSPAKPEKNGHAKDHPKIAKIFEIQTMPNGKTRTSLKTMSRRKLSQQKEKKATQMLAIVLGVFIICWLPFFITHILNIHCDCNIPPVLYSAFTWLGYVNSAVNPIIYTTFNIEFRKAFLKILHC
Sequence of serotoninergic 5-HT7 receptor (P34969 whole entry): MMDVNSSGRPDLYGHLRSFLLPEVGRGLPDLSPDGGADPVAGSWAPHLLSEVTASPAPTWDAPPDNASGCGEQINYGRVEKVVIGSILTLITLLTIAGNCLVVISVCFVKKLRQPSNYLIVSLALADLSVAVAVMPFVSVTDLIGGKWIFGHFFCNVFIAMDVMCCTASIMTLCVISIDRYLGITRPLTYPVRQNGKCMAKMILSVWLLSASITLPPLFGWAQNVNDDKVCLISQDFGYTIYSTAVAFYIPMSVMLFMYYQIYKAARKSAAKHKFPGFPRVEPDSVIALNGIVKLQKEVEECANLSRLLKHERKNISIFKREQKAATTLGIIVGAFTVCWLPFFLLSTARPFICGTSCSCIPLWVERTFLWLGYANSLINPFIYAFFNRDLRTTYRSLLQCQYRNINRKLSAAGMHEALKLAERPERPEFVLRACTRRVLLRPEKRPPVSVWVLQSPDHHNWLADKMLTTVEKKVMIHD
Sequence of serotoninergic 5-HT2A receptor (P28223 whole entry): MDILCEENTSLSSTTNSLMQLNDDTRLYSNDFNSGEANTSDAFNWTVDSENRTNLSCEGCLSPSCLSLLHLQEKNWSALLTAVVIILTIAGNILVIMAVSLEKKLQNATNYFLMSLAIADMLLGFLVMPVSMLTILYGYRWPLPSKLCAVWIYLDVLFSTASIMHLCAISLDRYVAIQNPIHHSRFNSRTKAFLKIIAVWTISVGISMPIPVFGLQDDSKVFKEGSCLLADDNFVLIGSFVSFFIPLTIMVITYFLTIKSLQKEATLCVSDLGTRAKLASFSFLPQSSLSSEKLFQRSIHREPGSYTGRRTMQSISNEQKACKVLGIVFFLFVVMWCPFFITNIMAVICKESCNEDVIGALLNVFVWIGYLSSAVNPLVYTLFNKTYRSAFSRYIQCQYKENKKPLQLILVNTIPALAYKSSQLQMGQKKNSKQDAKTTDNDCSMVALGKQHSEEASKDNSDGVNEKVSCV
Sequence of dopaminergic D3 receptor (P35462 whole entry): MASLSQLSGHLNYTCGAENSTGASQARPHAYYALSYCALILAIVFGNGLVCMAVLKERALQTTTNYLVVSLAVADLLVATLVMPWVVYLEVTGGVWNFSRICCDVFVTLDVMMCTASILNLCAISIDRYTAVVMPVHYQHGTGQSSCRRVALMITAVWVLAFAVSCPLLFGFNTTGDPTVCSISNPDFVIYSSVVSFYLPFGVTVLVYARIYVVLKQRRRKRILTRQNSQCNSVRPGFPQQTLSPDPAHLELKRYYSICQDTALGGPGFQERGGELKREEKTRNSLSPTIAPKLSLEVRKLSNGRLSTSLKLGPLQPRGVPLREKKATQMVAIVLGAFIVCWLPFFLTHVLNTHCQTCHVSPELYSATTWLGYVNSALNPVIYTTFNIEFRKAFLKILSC

For the molecule `O=S(=O)(NCCCCN1CCN(c2cccc3[nH]ccc23)CC1)c1cccc(Cl)c1` [Compound 113, N-[4-[4-(1H-Indol-4-yl)piperazin-1-yl]butyl]-3-chlorobenzenesulphonamide], the inhibition at 1 µM came to 100% in assay [1]; 45% in assay [2]; 94% at dopaminergic D2 receptor; 99% at adrenergic α2C receptor; 10% in [3]; 99% on dopaminergic D3 receptor. In addition, the inhibition at 1 µM in assay [4] is 69%. Moreover, the “α1 [%]” value in the assay on adrenergic α1 receptor is listed as 99%. The activation at 1 µM was 9% in [2] (setting [5]) and 42% on dopaminergic D2 receptor. Moreover, in the assay with sigma σ receptor, the “σ [%]” value is 92%.

For the molecule `O=c1[nH]c2cccc(N3CCN(CCCNS(=O)(=O)c4cccc5ccccc45)CC3)c2[nH]1` [Compound 423, N-[3-[4-(2-oxo-1,3-dihydrobenzimidazol-4-yl)piperazin-1-yl]propyl]naphthalene-1-sulphonamide], the inhibition at 1 µM in [1] was 99%; on dopaminergic D2 receptor, 96%; at adrenergic α2C receptor, 69%; in [3], 9%; on dopaminergic D3 receptor, 98%; in assay [4] it was 30%. For the same molecule, the “α1 [%]” value in the assay with adrenergic α1 receptor was determined as 91%. In addition, on dopaminergic D2 receptor, the activation at 1 µM was 41%. Besides, in the assay on sigma σ receptor, the “σ [%]” value came to 9%.

For `O=c1[nH]c2cccc(N3CCN(CCCNS(=O)(=O)c4ccc5ccccc5c4)CC3)c2[nH]1` [Compound 424, N-[3-[4-(2-oxo-1,3-dihydrobenzimidazol-4-yl)piperazin-1-yl]propyl]naphthalene-2-sulphonamide], the inhibition at 1 µM in assay [1] was 99%; in assay [2], 43%; at dopaminergic D2 receptor it was 97%; at adrenergic α2C receptor, 67%; in assay [3] it was 8%; at dopaminergic D3 receptor it was 98%. Also, the inhibition at 1 µM in [4] turned out to be 66%. For the same molecule, the “α1 [%]” value with adrenergic α1 receptor was found to be 93%. For the same molecule, the values for the activation at 1 µM (in assay [2] (setting [5]); at dopaminergic D2 receptor) were 18% and 44%, respectively. In addition, in the assay with sigma σ receptor, the “σ [%]” value is on record as −3%.

For the molecule `O=S(=O)(NCCCCN1CCN(c2cccc3[nH]ccc23)CC1)c1cnc2ccccn12` [Compound 30, N-{4-[4-(1H-Indol-4-yl)piperazin-1-yl]butyl}-imidazo[1,2-a]pyridine-3-sulphonamide], the inhibition at 1 µM in assay [1] is 100%; in [2], 73%; on dopaminergic D2 receptor it was 97%; at adrenergic α2C receptor, 99%; in assay [3], 11%; at dopaminergic D3 receptor, 98%. The inhibition at 1 µM in assay [4] stood at 67%. Moreover, the “α1 [%]” value with adrenergic α1 receptor is 96%. Further, the figures for the activation at 1 µM (in [2] (setting [5]); on dopaminergic D2 receptor) were 5% and 43%, respectively. Also, the “σ [%]” value in the assay with sigma σ receptor was 42%.

In the case of `O=S(=O)(NCCCCN1CCN(c2cccc3[nH]ccc23)CC1)c1ccccc1` [Compound 27, N-{4-[4-(1H-Indol-4-yl)piperazin-1-yl]butyl}benzenesulphonamide], the inhibition at 1 µM in assay [1] is 99%; in [2], 8%; on dopaminergic D2 receptor, 100%; on adrenergic α2C receptor, 100%; in assay [3], -1%; at dopaminergic D3 receptor, 96%. Also, the inhibition at 1 µM in [4] worked out at 62%. The “α1 [%]” value with adrenergic α1 receptor is given as 96%. Besides, the activation at 1 µM in assay [2] (setting [5]) is 5%; on dopaminergic D2 receptor it was 40%. Besides, the “σ [%]” value in the assay with sigma σ receptor came out at 78%.

Take `Cc1cccc(S(=O)(=O)NCCCCN2CCN(c3nsc4ccccc34)CC2)c1` [Compound 3, N-(4-(4-(1,2-Benzothiazol-3-yl)piperazin-1-yl)butyl)-3-methylbenzenesulphonamide]: the inhibition at 1 µM in assay [1] worked out at 98%; in [2], 93%; at adrenergic α2C receptor it was 99%; in [3], 77%; at dopaminergic D3 receptor, 98%; in assay [4], 100%. For the same molecule, the “α1 [%]” value in the assay with adrenergic α1 receptor amounted to 100%. In addition, in assay [2], the activation at 1 µM was -2%. Besides, in the assay with sigma σ receptor, the “σ [%]” value stood at 66%.

As for `O=S(=O)(NCCCCN1CCN(c2cccc3[nH]ccc23)CC1)c1cccc(F)c1` [Compound 28, 3-Fluoro-N-{4-[4-(1H-indol-4-yl)piperazin-1-yl]butyl}benzenesulphonamide], the inhibition at 1 µM in assay [1] stood at 100%; in [2] it was 23%; on dopaminergic D2 receptor, 105%; on adrenergic α2C receptor it was 92%; in assay [3] it was 6%; on dopaminergic D3 receptor it was 99%. For the same molecule, in assay [4], the inhibition at 1 µM is 89%. The “α1 [%]” value in the assay on adrenergic α1 receptor stood at 92%. The activation at 1 µM in assay [2] (setting [5]) worked out at 4%; at dopaminergic D2 receptor it was 49%. Also, the “σ [%]” value in the assay with sigma σ receptor came to 84%.

With `O=S(=O)(NCCCCN1CCN(c2cccc3[nH]ccc23)CC1)c1ccc(F)cc1` [Compound 359, 4-Fluoro-N-[4-[4-(1H-indol-4-yl)piperazin-1-yl]butyl]benzenesulphonamide], the inhibition at 1 µM in [1] is 100%; in [2], 43%; at dopaminergic D2 receptor, 96%; on adrenergic α2C receptor it was 99%; in assay [3] it was 12%; at dopaminergic D3 receptor, 100%. Besides, the inhibition at 1 µM in assay [4] is 79%. For the same molecule, the “α1 [%]” value in the assay on adrenergic α1 receptor is 97%. Moreover, the activation at 1 µM was determined as 8% in assay [2] (setting [5]) and 39% on dopaminergic D2 receptor. Also, the “σ [%]” value in the assay on sigma σ receptor stood at 85%.

These data come from US8822517B2, “Arylosulfonamides for the treatment of CNS diseases” (Adamed SP. Z O.O., priority 2010, dated 2014).
